Data published in article PMC10186366 (ACS Pharmacology & Translational Science, 2023).

Tests used:
[1] = tested on: D4 CHO cells (expresses only human FRβ); settings: 96 h; mean (standard error); previously published; cited from earlier work
SHMT2 = biological target: T1, SHMT2 (Homo sapiens, UniProt P34897); experiment: SHMT2 coupled enzyme assay with MTHFD2 (NADH production); assay type: biochemical; settings: mean (standard error), at least three replicate assays
T1 construct: N-terminal His6-tagged SHMT2 (residues 30–504); made in house; host or cells: E. coli Rosetta (DE3)pLysS
T1 sequence (P34897 30-504): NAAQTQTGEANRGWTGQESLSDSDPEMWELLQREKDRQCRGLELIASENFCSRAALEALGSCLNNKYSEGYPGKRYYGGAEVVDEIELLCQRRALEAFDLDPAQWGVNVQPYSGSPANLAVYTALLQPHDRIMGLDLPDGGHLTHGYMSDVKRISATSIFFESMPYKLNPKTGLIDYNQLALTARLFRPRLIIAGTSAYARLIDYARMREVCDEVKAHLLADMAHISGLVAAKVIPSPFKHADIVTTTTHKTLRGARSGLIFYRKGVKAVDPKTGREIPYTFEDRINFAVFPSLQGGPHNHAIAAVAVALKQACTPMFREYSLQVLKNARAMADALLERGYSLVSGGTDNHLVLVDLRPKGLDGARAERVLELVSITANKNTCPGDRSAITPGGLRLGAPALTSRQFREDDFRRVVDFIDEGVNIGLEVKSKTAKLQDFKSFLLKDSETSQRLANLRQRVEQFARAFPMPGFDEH
Method: N-terminal His6-tagged SHMT2 (residues 30–504) and full-length MTHFD2 were expressed in Rosetta (DE3)pLysS cells. One liter cultures were grown in LB media with 100 mg/mL ampicillin and 35 mg/mL chloramphenicol at 37 °C until the OD600 was 0.6. […] The cells were pelleted and resuspended in 25 mL of 25 mM Tris–HCl, pH 7.5, 300 mM NaCl, and 5 mM β-Me. To lyse the cells, 40 mg lysozyme and 8 U DNAse I were added followed by incubation on ice for 15 min. The cells were then lysed by emulsification.
Purification of His-SHMT2 and His-MTHFD2 was by Ni-affinity chromatography (above). For further purification of His-SHMT2, pyridoxal 5′-phosphate (PLP) was added (3-fold excess to His-SHMT2) followed by incubation for 16–18 h. Further purification was by size exclusion chromatography on a Superdex 200 16/60 column (GE Healthcare) with monitoring of PLP absorbance at 435 nm. Purified His-SHMT2 was stored in 20 mM sodium phosphate buffer, pH 7.5, 100 mM potassium chloride, 0.2 mM EDTA, and 5 mM β-ME. To further purify MTHFD2, size exclusion chromatography was performed using a Superdex 200 16/60 column (GE Healthcare). His-MTHFD2 was stored in 50 mM Tris–HCl buffer, pH 7.5, 250 mM sodium chloride, 5% glycerol, and 0.5 mM tris(2-chloroethyl) phosphate (TCEP).
Kinetic measurements were recorded in triplicate in a UV-transparent 96-well plate (Costar 3635) at 298 nm using a BioTek Synergy Neo2 Plate Reader. Initial slopes were graphed against inhibitor concentrations and fit to a three-parameter nonlinear regression to calculate IC50 values for each compound (GraphPad Prism 8.0). […] SHMT2 activity was assayed by monitoring NADH production with a coupled assay including 500 nM His-SHMT2 and 10 μM His-MTHFD2 (1:200 molar ratio His-SHMT2/His-MTHFD2). NADH production by His-MTHFD2 was monitored by fluorescence at 470 nm with excitation at 360 nm (Synergy Neo2 Biotek plate reader). Inhibition constants (Ki’s) were calculated from the IC50 values using the equation Ki = IC50/([S]/KM + 1) and the Km and substrate concentration for THF. The THF concentration in the reaction was 50 mM.

[2] = tested on: PC43-10 CHO cells (expresses only human RFC); settings: 96 h; mean (standard error); previously published; cited from earlier work
[3] = tested on: SHMT2 (mitochondrial C1 metabolism) in KB tumor cells; experiment: Targeted metabolomics flux analysis with [2,3,3-2H]serine in KB cells; assay type: cell-based, human; settings: 0.1 μM compound, 250 μM [2,3,3-2H]serine, versus vehicle-treated cells
Source text: Serine is catabolized in the mitochondria via SHMT2, which converts serine to glycine and 5,10-methylene THF, the latter of which is metabolized by MTHFD2 to 10-CHOTHF and by MTHFD1L to formate (Figure 7).
The cells were processed for liquid chromatography–mass spectrometry (LC–MS) analysis of total serine and glycine, and deuterated serine (M + 3, M + 2, M + 1, and M + 0 serine, where M + n represents species with n deuterium atoms) and glycine (M + 1 and M + 0) isotopomers. The results are shown in Figure 8 and are compared to those for control (vehicle-treated) cells (labeled “N/A”).
Figure 8 Metabolomics flux analysis with [2,3,3-^2H]serine to assay mitochondrial C1 metabolism via SHMT2. (A) A schematic of [2,3,3-^2H]serine metabolism is shown. Heavy (^2H) atoms in serine (colored circles) are metabolized via SHMT2 initially followed by MTHFD2 and MTHFD1L to formate. (B, C) Total serine and glycine and the distribution of the serine (M + n, n = 0−3) and glycine (n = 0 or 1) isotopomers are shown. The loss of M + 3 serine corresponding to the metabolism of [2,3,3-^2H]serine to M + 1 glycine is a direct measure of SHMT2 activity in the cells.[45] Experimental methods are described in the Experimental Section. Results are shown as mean values plus/minus standard deviations (n = 3). *P < 0.05; **P < 0.01. […]
KB cells (1 × 10[6]) were seeded in each of three 60 mm dishes in folate-, serine-, and glycine-free RPMI1640 supplemented with 10% DFBS, 1% penicillin/streptomycin, 2 mM L-glutamine, 285 μM serine, 130 μM glycine, and 2 nM leucovorin. […] The targeted metabolites were quantitatively determined using the AB Sciex QTRAP 6500 LC–MS/MS system. […] Isotopomers were detected using multiple reaction monitoring (MRM) at the positive ionization mode. […] Absolute metabolite concentrations were calculated from calibration curves and then normalized to total protein concentrations measured from the postextraction pellet (solubilized in 0.5 N NaOH) using the Folin-phenol method.[53] […] To correct for multiple comparisons, adjusted p values were determined using Holm’s method.

Row | SMILES | IC50 [1] | Ki (SHMT2) | IC50 [2] | Increase in M + 3 serine [3]
1 | Nc1nc2sc(CCCc3ccc(C(=O)N[C@@H](CCC(=O)O)C(=O)O)cc3)cc2c(=O)[nH]1 [Compound 1] | 0.112 µM | 67.3 µM | > 1 µM | 2–4 fold
2 | Nc1nc2sc(CCCc3ccc(C(=O)N[C@@H](CCC(=O)O)C(=O)O)c(F)c3)cc2c(=O)[nH]1 [Compound 6, (4-(3-(2-Amino-4-oxo-3,4-dihydrothieno[2,3-d]pyrimidin-6-yl)propyl)-2-fluorobenzoyl)-L-glutamic Acid] |  | 27.6 µM |  | 2–4 fold
